Assay: Measurement of stability (high-temperature, high-humidity and photostability tests; HPLC impurity content)
Type: physicochemical
Details: for total impurity / purity: 210 nm
Protocol: An appropriate amount of the Complex (IA) sample (prepared from example 2) was weighed and tiled on a clean culture dish at a thickness of ≤5 mm, and analyzed under the following conditions:
The test sample was placed under a high temperature condition (60±2° C.) for 10 d, the relative indexes were measured at the fifth and tenth days. […] If no significant change, the test at 40° C. was not necessary.
The test sample was placed under a 25° C. and RH 90%±5% condition for 10 d, and the sample were measured at the fifth and tenth days. Test items should include a moisture-absorption weight gain. If weighting percentage of moisture absorption was more than 5%, the test should be carried out under a 25° C. and RH 75%±5% condition using the same method; If weighting percentage of moisture absorption was less than 5%, and other inspection items met the requirements, the test was not necessary. The constant humidity condition can be realized by adopting constant temperature humidity chamber or placing a saturated saline solution under a closed container. […]
The test sample was placed in light box or other suitable light vessel under a 4500 Lx±500 Lx of illuminance condition for 10 d, and the sample were measured at the fifth and tenth days.
The impurity content of the sample was calculated by the normalization method of peak area using an HPLC chromatographic instrument under the above condition, the analytic conditions were shown below:
The detection was performed on Agilent 1200DAD high pressure liquid chromatography spectrometer (Zorbax Eclipse Plus C18 150×4.6 mm chromatographic column).
The test condition of HPLC: the run time was 30 minutes (min); the column temperature was 35° C.; the detection was carried out at the wavelength of 210 nm and 225 nm;
Mobile phase: phase C: acetonitrile phase D: ultrapure water flow rate: 1.0 mL/min.
Gradient elution, the ratio of mobile phase was shown as table B.

[1] = high humidity (25° C., RH 90%±5%), 5 d, HPLC
[2] = high humidity (25° C., RH 90%±5%), 10 d, HPLC
[3] = high-temperature (60±2° C.), 5 d, HPLC
[4] = high-temperature (60±2° C.), 10 d, HPLC
[5] = illumination (4500 Lx±500 Lx), 5 d, HPLC
[6] = illumination (4500 Lx±500 Lx), 10 d, HPLC

- total impurity (0 d, HPLC peak area normalization): 0.25%
- purity (0 d, HPLC): 99.75%
- appearance (high humidity (25° C., RH 90%±5%), 5 d): white bulk
- purity [1]: 99.70%
- total impurity [1]: 0.30%
- appearance (high humidity (25° C., RH 90%±5%), 10 d): white bulk
- purity [2]: 99.78%
- total impurity [2]: 0.22%
- purity [3]: 95.03%
- total impurity [3]: 4.97%
- purity [4]: 92.16%
- total impurity [4]: 7.84%
- stability (summary in words) (high-temperature, high humidity or illumination for 10 d, listed as compound (I-n) in amorphism form): poor stability
- purity [5]: 99.69%
- total impurity [5]: 0.31%
- purity [6]: 99.72%
- total impurity [6]: 0.28%
Compound: CCOc1ccc(Cc2cc([C@]34OC[C@]([C@@H](C)O)(O3)[C@@H](O)[C@H](O)[C@H]4O)ccc2Cl)cc1 [compound (I-n) amorphism, (1R,2S,3S,4R,5S)-5-(4-chloro-3-(4-ethoxybenzyl)phenyl)-1-((1R)-1-hydroxyethyl)-6,8-dioxabicyclo[3.2.1]octane-2,3,4-triol]
